Data on four compounds can be found in ChEMBL document CHEMBL6083249, “The journey of p38 MAP kinase inhibitors: From bench to bedside in treating inflammatory diseases” (Eur J Med Chem, 2024).

Data set [1] in a line: Oral bioavailability in ICR mouse. It counts as ADME, organism-based. The note with it: in vivo.
Data set [2] can be described thus: Oral bioavailability in rat. It counts as ADME, organism-based. The note with it: in vivo.
Data set [3] is described as follows: Cmax in ICR mouse at 5 mg/kg, iv by LC-MS/MS analysis. The data set is classed as ADME, organism-based. The following applies: in vivo.
Data set [4] in a line: Cmax in Wistar rat at 3 mg/kg, iv. It counts as ADME, organism-based. The following applies: in vivo.
The nature of data set [5]: Tmax in ICR mouse at 5 mg/kg, iv. The data set is classed as ADME, organism-based. The following applies: in vivo.
Data set [6] can be described thus: MRT in ICR mouse at 5 mg/kg, iv by LC-MS/MS analysis. It counts as ADME, organism-based. The note with it: in vivo.
The nature of data set [7]: Clearance in ICR mouse at 2 mg/kg, iv. It counts as ADME, organism-based. The note with it: in vivo.
The nature of data set [8]: Clearance in Wistar rat at 3 mg/kg, iv. It counts as ADME, organism-based. The note with it: in vivo.
Data set [9] can be described thus: Volume of distribution at steady state in ICR mouse at 2 mg/kg, iv. It counts as ADME, organism-based. The following applies: in vivo, read-out: Vdss.
Data set [10] can be described thus: Volume of distribution at steady state in Wistar rat at 3 mg/kg, iv. The data set is classed as ADME, organism-based. The following applies: in vivo, read-out: Vdss.
The target of data set [11] is Dual specificity mitogen-activated protein kinase kinase 1 (Homo sapiens) (UniProt Q02750). The data set is described as follows: Inhibition of MKK1 (unknown origin) at 1 uM relative to control. The note with it: values are per cent of control.
Data set [12] deals with Mitogen-activated protein kinase 1 (Homo sapiens) (UniProt P28482). The data set is described as follows: Inhibition of ERK2 (unknown origin) at 1 uM relative to control. The note with it: values are per cent of control.
The target of data set [13] is Mitogen-activated protein kinase 8 (Homo sapiens) (UniProt P45983). Nature of the data set: Inhibition of JNK1alpha1 (unknown origin) at 1 uM relative to control. The following applies: values are per cent of control.
Data set [14] concerns the target Ribosomal protein S6 kinase alpha-1 (Homo sapiens) (UniProt Q15418). The data set is described as follows: Inhibition of RSK1 (unknown origin) at 1 uM relative to control. The note with it: values are per cent of control.
The target of data set [15] is MAP kinase-activated protein kinase 5 (Homo sapiens) (UniProt Q8IW41). The data set is described as follows: Inhibition of PRAK (unknown origin) at 1 uM relative to control. The note with it: values are per cent of control.
The species named for data set [16] is Homo sapiens. Nature of the data set: Inhibition of PKA (unknown origin) at 1 uM relative to control. The note with it: values are per cent of control.
In data set [17] the target is T1, Protein kinase C alpha type (Homo sapiens, UniProt P17252). The data set is described as follows: Inhibition of PKCalpha (unknown origin) at 1 uM in presence of ATP relative to control. The note with it: values are per cent of control.
Data set [18] deals with Serine/threonine-protein kinase Sgk1 (Homo sapiens) (UniProt O00141). The data set is described as follows: Inhibition of SGK1 (unknown origin) at 1 uM by Z'LYTE kinase assay relative to control. The following applies: values are per cent of control.
In data set [19] the target is Ribosomal protein S6 kinase beta-1 (Homo sapiens) (UniProt P23443). The data set is described as follows: Inhibition of S6K1 (unknown origin) at 1 uM relative to control. The following applies: values are per cent of control.
In data set [20] the target is Rho-associated protein kinase 2 (Homo sapiens) (UniProt O75116). Nature of the data set: Inhibition of ROCK2 (unknown origin) at 1 uM relative to control. The note with it: values are per cent of control.
The target in data set [21] is Casein kinase 2 (Homo sapiens) (UniProt P67870+P68400+P19784+Q8NEV1). Nature of the data set: Inhibition of CK2 (unknown origin) at 1 uM relative to control. It counts as protein assay. The following applies: values are per cent of control.
For data set [22], the species on record is Homo sapiens. The data set is described as follows: Inhibition of CK1 (unknown origin) at 1 uM relative to control. The note with it: values are per cent of control.
The species entered for data set [23] is Homo sapiens. Nature of the data set: Inhibition of CK1 (unknown origin) at 10 uM relative to control. The following applies: values are per cent of control.
Data set [24] concerns the target Dual specificity tyrosine-phosphorylation-regulated kinase 1A (Homo sapiens) (UniProt Q13627). The data set is described as follows: Inhibition of DYRK1A (unknown origin) at 1 uM relative to control. The following applies: values are per cent of control.
The target is the same in data set [25]. The data set is described as follows: Inhibition of DYRK1A (unknown origin) at 10 uM relative to control. The following applies: values are per cent of control.
For data set [26], the system named is THP-1. The data set is described as follows: Anti-inflammatory activity in human THP-1 cells assessed as inhibition of IL-1beta protein expression incubated for 24 hrs by Western blot analysis. The data set is classed as functional, cell-based. The following applies: THP-1, 24 h. On the technique in general: A western blot detects proteins with antibodies after separation by electrophoresis.

The subject of data set [27] is THP-1. Nature of the data set: Antiinflammatory activity against human THP-1 cells assessed as inhibition of LPS-induced TNF-alpha production. It counts as functional, cell-based.
The next data set concerns RAW264.7. The data set is described as follows: Anti-inflammatory activity in LPS-induced mouse RAW264.7 cells assessed as inhibition of IL-6 production. The data set is classed as functional, cell-based.
A short description of data set [28]: Oral bioavailability in Sprague-Dawley rat at 10 mg/kg by LC-MS analysis. The data set is classed as ADME, organism-based. The note with it: in vivo.
Data set [29] is described as follows: Clearance in Sprague-Dawley rat at 10 mg/kg, iv by HPLC-MS analysis. The note with it: in vivo. The data set is classed as ADME, organism-based.
Data set [30] can be described thus: Volume of distribution at steady state in Sprague-Dawley rat at 10 mg/kg, iv measured for 24 hrs by LC-MS/MS analysis. It counts as ADME, organism-based. The following applies: in vivo, read-out: Vdss.
The nature of data set [31]: Tmax in Wistar rat at 10 mg/kg, po by LC-MS/MS analysis. It counts as ADME, organism-based. The note with it: in vivo.
Data set [32] is described as follows: Cmax in Wistar rat at 10 mg/kg, po by LC-MS/MS analysis. The note with it: in vivo. It counts as ADME, organism-based.
Data set [33] can be described thus: Half life in Sprague-Dawley rat at 10 mg/kg, po by LC-MS analysis. The note with it: in vivo. The data set is classed as ADME, organism-based.
A short description of data set [34]: AUC in Sprague-Dawley rat at 10 mg/kg, po measured for 24 hrs by LC-MS/MS analysis. The data set is classed as ADME, organism-based. The following applies: in vivo.
Data set [35] has as its target T1, Protein kinase C alpha type. The data set is described as follows: Inhibition of PKCalpha (unknown origin).
Data set [36] addresses Protein kinase C beta type (Homo sapiens, UniProt P05771). Nature of the data set: Inhibition of PKCbeta2 (unknown origin).

As a reminder, the bioavailability is dose-corrected exposure relative to a reference, in per cent. Read a high bioavailability as good availability. Usually Cmax stands for the highest concentration seen after dosing. What is called Tmax is the time from dosing to the highest level. For orientation: MRT means a mean duration of stay, worked out from the concentration-time curve. As a reminder, the clearance is the rate of elimination divided by the concentration. A lower clearance goes with inefficient removal. A word on the IC50: it is the point on the concentration scale where inhibition reaches its midpoint. The EC50 is the concentration that produces a half-maximal response. By half-life is commonly meant the time in which the quantity being followed falls by half. Read a high half-life as slow decline.

Ribosomal protein S6 kinase beta-1 (Homo sapiens), sequence (P23443 whole entry, looked up): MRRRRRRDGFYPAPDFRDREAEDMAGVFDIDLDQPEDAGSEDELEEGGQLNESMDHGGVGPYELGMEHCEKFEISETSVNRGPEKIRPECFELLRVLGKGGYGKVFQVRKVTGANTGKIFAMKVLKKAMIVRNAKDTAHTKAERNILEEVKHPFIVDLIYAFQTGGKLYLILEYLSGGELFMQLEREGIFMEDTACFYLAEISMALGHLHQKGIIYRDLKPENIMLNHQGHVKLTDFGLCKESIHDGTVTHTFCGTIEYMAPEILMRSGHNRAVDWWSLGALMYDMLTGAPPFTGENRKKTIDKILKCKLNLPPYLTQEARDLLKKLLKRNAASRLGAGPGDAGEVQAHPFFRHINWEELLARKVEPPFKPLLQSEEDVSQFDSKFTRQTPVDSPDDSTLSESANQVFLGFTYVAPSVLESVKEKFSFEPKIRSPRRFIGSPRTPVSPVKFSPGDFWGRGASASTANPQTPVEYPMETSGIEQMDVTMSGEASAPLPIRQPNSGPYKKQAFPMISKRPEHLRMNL
Ribosomal protein S6 kinase alpha-1 (Homo sapiens), sequence (Q15418 whole entry): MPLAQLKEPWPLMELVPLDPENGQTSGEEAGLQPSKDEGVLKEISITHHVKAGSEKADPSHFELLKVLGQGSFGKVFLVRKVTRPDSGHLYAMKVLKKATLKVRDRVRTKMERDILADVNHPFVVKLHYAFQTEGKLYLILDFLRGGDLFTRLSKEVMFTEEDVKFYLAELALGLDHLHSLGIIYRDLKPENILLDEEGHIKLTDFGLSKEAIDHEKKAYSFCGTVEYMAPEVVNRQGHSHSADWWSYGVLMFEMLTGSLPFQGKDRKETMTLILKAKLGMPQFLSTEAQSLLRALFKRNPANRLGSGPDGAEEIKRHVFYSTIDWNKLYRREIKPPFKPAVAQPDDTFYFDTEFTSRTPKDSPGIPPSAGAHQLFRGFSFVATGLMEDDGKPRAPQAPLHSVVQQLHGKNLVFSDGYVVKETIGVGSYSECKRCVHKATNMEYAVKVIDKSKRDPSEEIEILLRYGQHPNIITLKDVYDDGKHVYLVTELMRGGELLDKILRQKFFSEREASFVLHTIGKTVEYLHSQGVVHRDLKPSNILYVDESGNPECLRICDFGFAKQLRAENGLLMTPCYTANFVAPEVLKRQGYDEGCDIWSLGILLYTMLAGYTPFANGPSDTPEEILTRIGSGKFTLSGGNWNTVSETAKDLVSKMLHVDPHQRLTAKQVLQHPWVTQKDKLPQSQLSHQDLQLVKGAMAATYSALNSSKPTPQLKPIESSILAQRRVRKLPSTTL
Serine/threonine-protein kinase Sgk1 (Homo sapiens), sequence (O00141 whole entry): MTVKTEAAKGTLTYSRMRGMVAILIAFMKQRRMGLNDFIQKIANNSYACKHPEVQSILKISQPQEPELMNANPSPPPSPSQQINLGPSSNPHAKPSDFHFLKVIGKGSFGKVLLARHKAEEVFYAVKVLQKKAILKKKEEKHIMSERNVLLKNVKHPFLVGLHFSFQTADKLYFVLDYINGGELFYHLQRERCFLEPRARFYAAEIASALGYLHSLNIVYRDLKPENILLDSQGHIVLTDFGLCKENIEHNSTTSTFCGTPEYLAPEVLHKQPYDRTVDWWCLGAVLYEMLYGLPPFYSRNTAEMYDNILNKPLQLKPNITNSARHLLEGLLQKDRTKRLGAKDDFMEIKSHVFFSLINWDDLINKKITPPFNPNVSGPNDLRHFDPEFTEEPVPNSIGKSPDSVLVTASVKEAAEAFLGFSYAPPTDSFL
Dual specificity mitogen-activated protein kinase kinase 1 (Homo sapiens), sequence (Q02750 whole entry): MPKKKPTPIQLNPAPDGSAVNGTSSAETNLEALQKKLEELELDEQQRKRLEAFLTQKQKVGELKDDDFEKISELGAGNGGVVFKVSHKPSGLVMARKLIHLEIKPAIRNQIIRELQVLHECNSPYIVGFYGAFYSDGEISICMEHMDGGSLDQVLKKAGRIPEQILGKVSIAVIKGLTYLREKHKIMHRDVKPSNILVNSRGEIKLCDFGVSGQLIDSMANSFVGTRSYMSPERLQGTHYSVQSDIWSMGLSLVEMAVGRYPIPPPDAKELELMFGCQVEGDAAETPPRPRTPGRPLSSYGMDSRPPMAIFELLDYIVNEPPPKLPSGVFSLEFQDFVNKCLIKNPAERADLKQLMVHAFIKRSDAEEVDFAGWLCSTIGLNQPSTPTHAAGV
Mitogen-activated protein kinase 1 (Homo sapiens), sequence (P28482 whole entry): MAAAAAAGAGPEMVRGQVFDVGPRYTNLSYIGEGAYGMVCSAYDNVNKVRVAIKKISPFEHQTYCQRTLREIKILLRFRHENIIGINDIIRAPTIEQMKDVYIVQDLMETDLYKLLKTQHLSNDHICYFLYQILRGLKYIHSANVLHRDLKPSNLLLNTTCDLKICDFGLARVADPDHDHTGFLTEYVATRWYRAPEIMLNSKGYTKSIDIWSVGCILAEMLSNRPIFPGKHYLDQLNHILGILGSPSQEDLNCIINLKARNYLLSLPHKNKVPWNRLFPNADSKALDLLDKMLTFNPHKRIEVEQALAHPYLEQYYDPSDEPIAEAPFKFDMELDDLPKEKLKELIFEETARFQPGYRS
Protein kinase C beta type, sequence (P05771 whole entry): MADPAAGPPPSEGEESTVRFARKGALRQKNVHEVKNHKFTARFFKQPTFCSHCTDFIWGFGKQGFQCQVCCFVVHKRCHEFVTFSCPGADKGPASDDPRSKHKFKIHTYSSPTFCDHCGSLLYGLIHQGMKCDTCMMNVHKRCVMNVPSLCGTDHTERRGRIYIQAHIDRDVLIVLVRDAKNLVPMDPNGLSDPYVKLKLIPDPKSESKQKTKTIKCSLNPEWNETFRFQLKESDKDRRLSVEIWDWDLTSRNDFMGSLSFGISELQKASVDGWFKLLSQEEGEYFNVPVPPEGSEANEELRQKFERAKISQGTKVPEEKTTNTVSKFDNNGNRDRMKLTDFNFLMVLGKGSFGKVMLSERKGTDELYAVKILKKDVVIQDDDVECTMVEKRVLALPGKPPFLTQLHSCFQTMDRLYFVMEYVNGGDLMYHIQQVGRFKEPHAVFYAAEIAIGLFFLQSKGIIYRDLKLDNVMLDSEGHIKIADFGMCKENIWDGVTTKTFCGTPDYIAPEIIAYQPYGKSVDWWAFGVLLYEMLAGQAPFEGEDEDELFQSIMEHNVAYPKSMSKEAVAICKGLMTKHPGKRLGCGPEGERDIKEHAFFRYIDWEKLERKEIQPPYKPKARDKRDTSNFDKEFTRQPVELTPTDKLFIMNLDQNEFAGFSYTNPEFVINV
MAP kinase-activated protein kinase 5 (Homo sapiens), sequence (Q8IW41 whole entry): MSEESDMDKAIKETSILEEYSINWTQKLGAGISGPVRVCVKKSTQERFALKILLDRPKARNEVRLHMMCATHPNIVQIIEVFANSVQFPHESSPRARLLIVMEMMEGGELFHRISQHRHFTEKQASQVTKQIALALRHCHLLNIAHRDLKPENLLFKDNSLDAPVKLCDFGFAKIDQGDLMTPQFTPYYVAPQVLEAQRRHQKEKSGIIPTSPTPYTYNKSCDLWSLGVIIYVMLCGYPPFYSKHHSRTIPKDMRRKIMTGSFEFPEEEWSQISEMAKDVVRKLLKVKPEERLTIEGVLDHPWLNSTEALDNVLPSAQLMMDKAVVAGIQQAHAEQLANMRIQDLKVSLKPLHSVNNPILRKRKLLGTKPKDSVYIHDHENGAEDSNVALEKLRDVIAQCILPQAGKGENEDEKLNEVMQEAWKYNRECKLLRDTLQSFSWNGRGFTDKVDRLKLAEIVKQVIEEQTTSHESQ

With `CCCNC(=O)c1cn2ncnc(Nc3cc(C(=O)NC4CC4)ccc3C)c2c1C` [BMS-582949], the values for the bioavailability in data set [1] and in data set [2] were 90% and 60%, respectively. Further, the results for the Cmax in [3] and in data set [4] were 15.3 µM and 7 µM, respectively. The Tmax in [5] is 1 h. The MRT in [6] is 3.3 h. The results for the clearance in data set [7] and in [8] were 4.4 mL/min/kg and 5.4 mL/min/kg, respectively. For the same compound, the Vd in [9] was determined as 0.9 L/kg; in data set [10], 1.1 L/kg.
Consider `Cc1ccc(-n2nc(C(C)(C)C)cc2NC(=O)Nc2ccc(OCCN3CCOCC3)c3ccccc23)cc1`, for which the residual activity in [11] came out at 71%; in [12], 79%; in [13] it was 70%; in [14], 59%; in data set [15], 71%; in the data set listed under Homo sapiens [16], 88%. For the same compound, the residual activity was 80% in data set [17]; 94% in data set [18]; 119% in data set [19]; 80% in data set [20]; 85% in [21]; 87% in the data set filed under Homo sapiens [22]. Moreover, the residual activity in the data set listed under Homo sapiens [23] worked out at 84%; in [24] it was 82%; in data set [25], 79%.
Take `Cn1c(=O)c(Oc2ccc(F)cc2F)cc2cnc(NC(CCO)CCO)nc21` [PAMAPIMOD]: the IC50 with THP-1 [26] is 100 nM; with THP-1 [27], 300 nM. Moreover, the EC50 in the data set with RAW264.7 stood at 50 nM. Further, the bioavailability in data set [28] turned out to be 80.1%. In data set [29], the clearance is 21 mL/min/kg. Further, the Vd in [30] was found to be 3.56 L/kg. Also, the Tmax in data set [31] worked out at 0.5 h. The same compound returned a Cmax in data set [32] of 1340 ng/mL. For the same compound, the half-life in data set [33] is 4.04 h. In data set [34], this compound registered an AUC of 3.13 µg/h/mL.
`C[S+]([O-])c1ccc(-c2nc(-c3ccncc3)c(-c3ccc(F)cc3)[nH]2)cc1` (configuration not stated) [SB-203580]: the IC50 in [35] is above 100000 nM; in data set [36], above 50000 nM.
